Where two headings read alike, the source gives them in different places.
Legend:
[1] = system: MV4-11 cells; test: Leukemia cell proliferation inhibition test (ATPlite), MV4-11; type: cell-based; conditions: Homo sapiens, read-out: MV4-11 cell proliferation inhibition effect
In short: (§1)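 Molm-13 or MV4-11 cells in RPMI with 10% FBS and pen/strep, seeded at 10,000 cells per well, were exposed to serially diluted compound for 72 hours at 37° C, 5% CO2. Total cellular ATP was read by luciferase luminescence. GI50 came from sigmoid fits against the 0.1% DMSO control, in duplicate.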

[2] = target: T1, human FLT3 protein (FLT3 (WT)) (Homo sapiens, UniProt P36888); test: FLT3 inhibition test (FLT3 enzyme inhibition, time-resolved fluorescence of substrate peptide phosphorylation); type: biochemical; conditions: read-out: FLT3 (WT) enzyme inhibition activity
T1 construct: human FLT3 protein (intracellular region, 564 to 993 aa); GST; purchased Carna Biosciences; host or cells: baculovirus expression system
T1 sequence (P36888 564-993): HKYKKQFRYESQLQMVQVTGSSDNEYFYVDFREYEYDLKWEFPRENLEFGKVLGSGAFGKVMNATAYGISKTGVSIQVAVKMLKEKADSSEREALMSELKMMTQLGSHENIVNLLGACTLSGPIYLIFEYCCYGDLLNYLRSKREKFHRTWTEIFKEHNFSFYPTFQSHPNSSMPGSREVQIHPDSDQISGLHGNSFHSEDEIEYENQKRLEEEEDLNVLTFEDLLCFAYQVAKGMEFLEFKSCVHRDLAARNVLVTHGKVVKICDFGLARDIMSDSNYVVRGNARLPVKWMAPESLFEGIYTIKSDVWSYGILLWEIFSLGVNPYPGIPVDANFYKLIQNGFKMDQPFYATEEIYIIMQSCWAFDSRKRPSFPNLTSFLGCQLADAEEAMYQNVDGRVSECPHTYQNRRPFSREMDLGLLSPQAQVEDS
In short: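 Substrate peptide phosphorylation detected by time-resolved fluorescence after a 30 min kinase reaction at 25° C with 50 μM ATP (final). Beforehand, compound and FLT3 (WT, 1.2 μg) stood 15 min at 25° C in HEPES buffer pH 7.5 containing MgCl2, NaCl, BSA and DTT.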

[3] = system: Molm-13 cells; test: Leukemia cell proliferation inhibition test (ATPlite), Molm-13; type: cell-based; conditions: Homo sapiens, read-out: MOLM13 cell proliferation inhibition effect
In short: as §1

[4] = MV4-11, 72 h, MV4-11, 72 hours culture, ATPlite, GI50 per method
[5] = GST-fused human FLT3 (564 to 993 aa), ATP 50 μM
[6] = MOLM-13, 72 h, Molm-13, 72 hours culture, ATPlite, GI50 per method

| IC50 [1, 4] [nM] | IC50 [2, 5] [nM] | IC50 [3, 6] [nM] | IC50 ([1]; MV4-11, MV4-11 cell) [nM] | IC50 ([2]; FLT3 (WT)) [nM] | IC50 ([3]; MOLM-13, MOLM13 cell) [nM] | Structure (SMILES) |
| --- | --- | --- | --- | --- | --- | --- |
| – | – | – | < 10 | < 10 | < 10 | CCCNc1ncc(C#CCCCNC(=O)[C@H](C)N(C)C(=O)/C=C/CN(C)C)c(Nc2ccc(OC)cc2)n1 [Compound 21-38] |
| – | – | – | 100 to 1000 | 10 to 100 | 10 to 100 | CCCNc1nc(Nc2ccc3nc(C)ccc3c2)ncc1C#CCCCNC(=O)[C@H](C)N(C)C(=O)/C=C/CN(C)C [Compound 22-5] |
| < 10 | < 10 | < 10 | – | – | – | CCCNc1nc(Nc2ccc(F)cc2)ncc1C#C[C@H]1C[C@@H](NC(=O)[C@H](C)N(C)C(=O)/C=C/CN(C)C)C1 [Compound 13-18] |
| < 10 | < 10 | 10 to 100 | – | – | – | COc1nc(Nc2ccc(F)nc2)ncc1C#C[C@@H]1CCC[C@H](NC(=O)[C@H](C)N(C)C(=O)/C=C/CN(C)C)C1 [Compound 15-2] |
| – | – | – | < 10 | < 10 | < 10 | CNc1nc(Nc2ccc(F)cc2)ncc1C#CCCCNC(=O)[C@@H]1CCCN1C(=O)/C=C/CN(C)C [Compound 21-43] |
| – | – | – | < 10 | < 10 | < 10 | CNc1nc(Nc2ccc(F)cc2)ncc1C#CCCCNC(=O)[C@H](C)N(C)C(=O)/C=C/CN(C)C [Compound 21-51] |
| < 10 | < 10 | < 10 | – | – | – | CCCOc1nc(Nc2ccc(C#N)cc2)ncc1C#C[C@@H]1CCC[C@H](NC(=O)[C@H](C)N(C)C(=O)/C=C/CN(C)C)C1 [Compound 21-13] |
| – | – | – | < 10 | < 10 | < 10 | COCCNc1nc(Nc2ccc(C#N)cc2)ncc1C#C[C@@H]1CCC[C@H](NC(=O)[C@H](C)N(C)C(=O)/C=C/CN(C)C)C1 [Compound 22-39] |
| < 10 | < 10 | < 10 | – | – | – | CCCNc1nc(Nc2cccc(C#N)c2)ncc1C#C[C@H]1C[C@@H](NC(=O)[C@H](C)N(C)C(=O)/C=C/CN(C)C)C1 [Compound 13-17] |
| < 10 | < 10 | < 10 | – | – | – | CCCNc1nc(Nc2ccc(C#N)cc2)ncc1C#C[C@@H]1CCC[C@H](NC(=O)CN(C)C(=O)/C=C/CN(C)C)C1 [Compound 13-6] |
| < 10 | < 10 | < 10 | – | – | – | CCCNc1nc(Nc2cccc(F)c2)ncc1-c1cc(CCNC(=O)[C@H](C)N(C)C(=O)/C=C/CN(C)C)no1 [Compound 17-1, (S,E)-4-(dimethylamino)-N-(1-((2-(5-(2-((3-fluorophenyl)amino)-4-(propylamino)pyrimidin-5-yl)isoxazol-3-yl)ethyl)amino)-1-oxopropan-2-yl)-N-methyl-2-butenamide] |
| < 10 | < 10 | < 10 | – | – | – | CNc1nc(Nc2ccc(OC)c(F)c2)ncc1C#C[C@H]1C[C@@H](NC(=O)[C@H](C)N(C)C(=O)/C=C/CN(C)C)C1 [Compound 13-16, (E)-4-(Dimethylamino)-N—((S)-1-(((1S,3R)-3-((2-((3-fluoro-4-methoxyphenyl)amino)-4-(methylamino)pyrimidin-5-yl)ethynyl)cyclobutyl)amino)-1-oxopropan-2-yl)-N-methyl-2-butenamide] |
| < 10 | < 10 | < 10 | – | – | – | CCOc1nc(Nc2cccc(F)c2)ncc1C#C[C@@H]1CCC[C@H](NC(=O)[C@H](C)N(C)C(=O)/C=C/CN(C)C)C1 [Compound 21-19] |
| – | – | – | < 10 | < 10 | < 10 | CCCNc1nc(Nc2ccc3c(c2)c(N(C)C)nn3C)ncc1C#CCCCNC(=O)[C@H](C)N(C)C(=O)/C=C/CN(C)C [Compound 22-12] |
| < 10 | < 10 | < 10 | – | – | – | CCCNc1nc(Nc2ccccc2)ncc1C#CCCCNC(=O)[C@H](C)N(C)C(=O)/C=C/CN(C)C [Compound 12-1, (S,E)-4-(dimethylamino)-N-methyl-N-(1-oxo-1-((5-(2-(phenylamino)-4-(propylamino)pyrimidin-5-yl)-4-pentyn-1-yl)amino)propan-2-yl)-2-butenamide] |

The remaining lines, values behind:

| Structure (SMILES) | IC50 [1, 4] [nM] | IC50 [2, 5] [nM] | IC50 [3, 6] [nM] | IC50 ([1]; MV4-11, MV4-11 cell) [nM] | IC50 ([2]; FLT3 (WT)) [nM] | IC50 ([3]; MOLM-13, MOLM13 cell) [nM] |
| --- | --- | --- | --- | --- | --- | --- |
| CCCNc1nc(Nc2cccc(F)c2)ncc1C#CCCCNC(=O)[C@@H]1C[C@@H](O)CN1C(=O)/C=C/CN(C)C [Compound 7-66, (2S,4R)-1-((E)-4-(Dimethylamino)-2-butenoyl)-N-(5-(2-((3-fluorophenyl)amino)-4-(propylamino)pyrimidin-5-yl)-4-pentyn-1-yl)-4-hydroxypyrrolidine-2-carboxamide] | < 10 | < 10 | < 10 | – | – | – |
| CCCNc1nc(Nc2cccc(F)c2)ncc1C#CCCCNC(=O)[C@@H]1C[C@@H](OC)CN1C(=O)/C=C/CN(C)C [Compound 7-58] | < 10 | < 10 | < 10 | – | – | – |
| C[C@@H](C(=O)NCCCC#Cc1cnc(Nc2cncc(F)c2)nc1NC1CC1)N(C)C(=O)/C=C/CN(C)C [Compound 9-22] | < 10 | < 10 | 10 to 100 | – | – | – |
| CCNc1nc(Nc2ccc3[nH]ncc3c2)ncc1C#CCCCNC(=O)[C@@H]1CCCN1C(=O)/C=C/CN(C)C [Compound 10-67, (S,E)-N-(5-(2-((1H-Indazol-5-yl)amino)-4-(ethylamino)pyrimidin-5-yl)-4-pentyn-1-yl)-1-(4-(dimethylamino)-2-butenoyl)pyrrolidine-2-carboxamide] | < 10 | < 10 | < 10 | – | – | – |
| CCCCN(CC(=O)NCCCC#Cc1cnc(Nc2ccc(C#N)cc2)nc1NCCC)C(=O)/C=C/CN(C)C [Compound 7-70] | < 10 | < 10 | < 10 | – | – | – |
| CCCNc1nc(Nc2ccc(C#N)cc2)ncc1C#CCCCNC(=O)[C@@H]1CCN1C(=O)/C=C/CN(C)C [Compound 7-52] | < 10 | < 10 | < 10 | – | – | – |
| C=CC(=O)NCC(=O)Nc1cccc(C#Cc2cnc(Nc3ccc(C(N)=O)cc3)nc2NCCC)c1 [Compound 8-3] | < 10 | < 10 | 10 to 100 | – | – | – |
| CCCNc1nc(Nc2ccc(C#N)cc2)ncc1C#CCCCNC(=O)CN(CCC)C(=O)/C=C/CN(C)C [Compound 7-64] | < 10 | < 10 | < 10 | – | – | – |
| CCCNc1nc(Nc2ccc(C(N)=O)cc2)ncc1C(=O)Nc1cccc(NC(=O)[C@H](C)N(C)C(=O)/C=C/CN(C)C)c1 [Compound 3-1, (S,E)-2-((4-carbamoylphenyl)amino)-N-(3-(2-(4-(dimethylamino)-N-methyl-2-butenamido)propanamido)phenyl)-4-(propylamino)pyrimidine-5-carboxamide] | < 10 | < 10 | < 10 | – | – | – |
| CCCNc1nc(Nc2ccc(C(N)=O)cc2)ncc1C(=O)Nc1ccc2nc(CNC(=O)/C=C/CN(C)C)[nH]c2c1 [Compound 3-18] | > 1000 | < 10 | > 1000 | – | – | – |
| COCCCNc1nc(Nc2ccc3[nH]ncc3c2)ncc1C#CCCCNC(=O)[C@@H]1CCCN1C(=O)/C=C/CN(C)C [Compound 10-68, (S,E)-N-(5-(2-((1H-Indazol-5-yl)amino)-4-((3-methoxypropyl)amino)pyrimidin-5-yl)-4-pentyn-1-yl)-1-(4-(dimethylamino)-2-butenoyl)pyrrolidine-2-carboxamide] | < 10 | < 10 | < 10 | – | – | – |
| CCCNc1nc(Nc2ccnc(OC)c2)ncc1C#CCCCNC(=O)[C@@H]1C[C@H](F)CN1C(=O)/C=C/CN(C)C [Compound 9-37, (2S,4S)-1-((E)-4-(Dimethylamino)-2-butenoyl)-4-fluoro-N-(5-(2-((2-methoxypyridin-4-yl)amino)-4-(propylamino)pyrimidin-5-yl)-4-pentyn-1-yl)pyrrolidine-2-carboxamide] | < 10 | < 10 | < 10 | – | – | – |
| CCCNc1nc(NCCc2ccncc2)ncc1C#Cc1cccc(NC(=O)[C@H](C)N(C)C(=O)/C=C/CN(C)C)c1 [Compound 8-6] | < 10 | < 10 | < 10 | – | – | – |
| CCCNc1nc(Nc2ccc(C(N)=O)cc2)ncc1C(=O)Nc1cccc(NC2CCCN(C(=O)/C=C/CN(C)C)CC2)c1 (stereo not drawn) [Compound 3-21] | 100 to 1000 | < 10 | 100 to 1000 | – | – | – |
| CCCNc1nc(Nc2ccc(C(N)=O)cc2)ncc1C(=O)NCCCNC(=O)[C@H](C)NC(=O)/C=C/CN(C)C [Compound 5-4] | 100 to 1000 | < 10 | 100 to 1000 | – | – | – |
| CCCNc1nc(NC(=O)Nc2ccncc2)ncc1C(=O)NCCCNC(=O)CN(C)C(=O)/C=C/CN(C)C [Compound 6-13] | 100 to 1000 | < 10 | 100 to 1000 | – | – | – |

Source: patent US9145415B2, “Nitrogen-containing heterocyclic compound or salt thereof” (FUJIFILM Corporation, priority 2012, dated 2015)
